Test systems include T-47D breast; M14 melanoma; UO-31 renal; MCF7 breast; UACC-62 melanoma; RPMI-8226 leukemia; BT-549 breast; HCC-2998 colon; SNB-75 CNS; EKVX NSCLC.
Assay in all cases: NCI tumour cell line growth inhibition, 48 h

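Five concentrations, 48 hours, 96-well plates. Abbreviation: GI50, concentration required for 50% inhibition of growth. TGI: concentration producing complete growth inhibition.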

With `Cc1ccc(Cl)c(Nc2ccccc2C(=O)O)c1Cl`, the GI50 in the experiment with T-47D breast is 33.4 µM; in the experiment on M14 melanoma it was 21.3 µM; with UO-31 renal, 19.3 µM; with MCF7 breast, 34.2 µM; in the experiment on UACC-62 melanoma it was 16.3 µM; in the experiment on RPMI-8226 leukemia, 26.6 µM. Besides, the GI50 is 21.7 µM with BT-549 breast and 26.6 µM in the experiment on HCC-2998 colon. For the same compound, the TGI in the experiment with T-47D breast was over 100 µM; in the experiment with M14 melanoma, 62.6 µM; in the experiment with UO-31 renal, 45.5 µM; with MCF7 breast it was over 100 µM; with UACC-62 melanoma, 32.7 µM; in the experiment on RPMI-8226 leukemia it was 80.5 µM. Besides, the TGI is 60.1 µM with BT-549 breast and 66.4 µM in the experiment on HCC-2998 colon.

Consider `CC(C)(C)CC(N)=O`, for which the TGI in the experiment with T-47D breast, in the experiment with M14 melanoma, in the experiment with UO-31 renal, with SNB-75 CNS, with MCF7 breast and in the experiment on UACC-62 melanoma was over 100 µM each time. Also, the TGI with BT-549 breast, in the experiment with HCC-2998 colon and in the experiment with EKVX NSCLC was over 100 µM throughout.

With `Cn1c(NCC(O)CN2CCCC2)cc(=O)n(C)c1=O` (centres undefined), the GI50 in the experiment with T-47D breast was over 100 µM; in the experiment on UO-31 renal it was over 100 µM; in the experiment on SNB-75 CNS it was 76.2 µM; with MCF7 breast, over 100 µM; in the experiment with UACC-62 melanoma, over 100 µM; in the experiment with RPMI-8226 leukemia it was over 100 µM. Besides, the GI50 in the experiment with BT-549 breast, in the experiment on HCC-2998 colon and with EKVX NSCLC was over 100 µM throughout. Also, the TGI in the experiment on T-47D breast, in the experiment on UO-31 renal, in the experiment on SNB-75 CNS, in the experiment on MCF7 breast, with UACC-62 melanoma and with RPMI-8226 leukemia was over 100 µM throughout. In addition, the TGI in the experiment with BT-549 breast, in the experiment with HCC-2998 colon and in the experiment on EKVX NSCLC was over 100 µM each time.

Regarding `COc1cc(-c2c(C#N)c(N)nc(N3CCOCC3)c2C#N)cc(OC)c1OC`, the GI50 with T-47D breast was 15.1 µM; with M14 melanoma, over 100 µM; with UO-31 renal, 96.1 µM; in the experiment on SNB-75 CNS, 1.64 µM; in the experiment with MCF7 breast, over 100 µM; with UACC-62 melanoma it was 36.9 µM. Moreover, the GI50 in the experiment with RPMI-8226 leukemia, with BT-549 breast and in the experiment on EKVX NSCLC was over 100 µM in each case. Besides, the TGI was over 100 µM in the experiment on T-47D breast; over 100 µM with M14 melanoma; over 100 µM in the experiment with UO-31 renal; 54.4 µM in the experiment with SNB-75 CNS; over 100 µM in the experiment on MCF7 breast; over 100 µM with UACC-62 melanoma. Also, the TGI with RPMI-8226 leukemia, in the experiment on BT-549 breast and in the experiment on EKVX NSCLC was over 100 µM in each case.

With `COc1ccc(/C=C/C(=O)c2ccc(OC)c(OC)c2)cc1O`, the GI50 was 5.74 µM with T-47D breast; 10.9 µM in the experiment on M14 melanoma; 5.83 µM in the experiment with UO-31 renal; 4.58 µM in the experiment with MCF7 breast; 11.2 µM with UACC-62 melanoma; 3.19 µM in the experiment on RPMI-8226 leukemia. Besides, the GI50 is 5.5 µM with BT-549 breast and 9.1 µM with HCC-2998 colon. Besides, the TGI in the experiment on T-47D breast was 25.5 µM; with M14 melanoma, 23.3 µM; with UO-31 renal it was 19.2 µM; with MCF7 breast it was 16.2 µM; in the experiment with UACC-62 melanoma it was 24.3 µM; in the experiment with RPMI-8226 leukemia it was 15.1 µM. In addition, the TGI with BT-549 breast came out at 17.4 µM; with HCC-2998 colon it was 22.1 µM.

As for `COc1cc([C@@H]2C[C@H]2c2cc(SC)n[nH]2)cc(OC)c1OC`, the GI50 in the experiment on T-47D breast was 16.5 µM; with M14 melanoma it was 13.9 µM; in the experiment with UO-31 renal it was 23 µM; in the experiment with SNB-75 CNS it was 26.4 µM; with MCF7 breast, 18.8 µM; in the experiment with UACC-62 melanoma, 14 µM. For the same compound, the GI50 was 12.6 µM in the experiment with RPMI-8226 leukemia, 16.2 µM with BT-549 breast and 14.9 µM in the experiment on EKVX NSCLC. In addition, the TGI in the experiment on T-47D breast is over 100 µM; in the experiment on M14 melanoma, 28.5 µM; in the experiment with UO-31 renal, over 100 µM; in the experiment with SNB-75 CNS, over 100 µM; in the experiment on MCF7 breast, 41.2 µM; in the experiment with UACC-62 melanoma, 43.6 µM. Also, the TGI with RPMI-8226 leukemia was found to be 37.2 µM; with BT-549 breast, 42 µM; with EKVX NSCLC it was 40.2 µM.

For the compound `Cc1ccc2c(c1)S(=O)(=O)c1ccc3ccccc3c1N2`, the TGI in the experiment with T-47D breast, in the experiment on M14 melanoma, with UO-31 renal, in the experiment with MCF7 breast, with UACC-62 melanoma and with BT-549 breast was over 100 µM throughout. Moreover, the TGI in the experiment with HCC-2998 colon and in the experiment with EKVX NSCLC was over 100 µM in each case.

Take `Cn1c(/C=C/[N+](=O)[O-])cc2ccccc21`: the GI50 in the experiment with T-47D breast was 2.79 µM; in the experiment on M14 melanoma, 1.77 µM; in the experiment on UO-31 renal, 1.47 µM; in the experiment on SNB-75 CNS, 3.36 µM; in the experiment on UACC-62 melanoma, 11.4 µM; with RPMI-8226 leukemia, 3.18 µM. In addition, the GI50 is 1.88 µM with BT-549 breast, 1.84 µM in the experiment with HCC-2998 colon and 15.3 µM with EKVX NSCLC. Also, the TGI with T-47D breast is 8.61 µM; in the experiment with M14 melanoma, 3.56 µM; in the experiment with UO-31 renal, 3.64 µM; with SNB-75 CNS, 28.4 µM; with UACC-62 melanoma, 31 µM; in the experiment with RPMI-8226 leukemia it was over 100 µM. The results for the TGI in the experiment with BT-549 breast, with HCC-2998 colon and in the experiment on EKVX NSCLC were 3.77 µM, 3.36 µM and over 100 µM, respectively.

In the case of `Cn1c(=O)c(Oc2ccc(F)cc2F)cc2cnc(NC3CCS(=O)(=O)CC3)nc21`, the GI50 is over 19.8 µM in the experiment with T-47D breast; over 25 µM in the experiment with M14 melanoma; over 25 µM in the experiment with UO-31 renal; over 14.2 µM in the experiment with SNB-75 CNS; over 25 µM in the experiment on MCF7 breast; over 25 µM in the experiment on UACC-62 melanoma. The GI50 with RPMI-8226 leukemia, in the experiment on BT-549 breast and with HCC-2998 colon was over 25 µM each time. Further, the TGI with T-47D breast, in the experiment with M14 melanoma, in the experiment with UO-31 renal, in the experiment on SNB-75 CNS, in the experiment on MCF7 breast and in the experiment with UACC-62 melanoma was over 25 µM each time. Besides, the TGI in the experiment with RPMI-8226 leukemia, in the experiment on BT-549 breast and with HCC-2998 colon was over 25 µM throughout.

Values taken from PubChem BioAssay (NCI).
